Measurements taken from patent US12366579B2, “Sulfur-heterocycle exchange chemistry and uses thereof” (University of Virginia Patent Foundation, priority 2019, dated 2025).
Entries after “also recorded” stand apart in the source; their conditions may differ.

Columns and labels:
DPP3 Y417 = target: T1, DPP3 Y417 (Homo sapiens, UniProt Q9NY33); experiment: Quantitative LC-MS chemical proteomics of recombinant human DPP3-HEK293T soluble proteome; assay type: binding; settings: 50 μM fragment, 37° C., 30 min
T1 construct: FLAG (C); host or cells: HEK293T, transient transfection; soluble proteome used unpurified
Protocol: Preparation of SILAC Proteomes for Liquid Chromatography-Tandem Mass Spectrometry ([…]) Analysis
(§1) Heavy and light proteomes (432 μl of each) were diluted to 2.3 mg ml^−1 in PBS and sample aliquots (432 μl) were treated with SuTEx fragment at the indicated concentrations (5 μl, 100× stock in DMSO), mixed gently and incubated for 30 min at 37° C. Samples were then treated with HHS-482 (5 μL, 5 mM stock in DMSO) for 30 min at 37° C. Probe-modified proteomes were conjugated to desthiobiotin-PEG3-azide followed by enrichment of probe-modified peptides for nano-electrospray ionization-LC-MS/MS analyses as previously described^57.
Identification of peptides and proteins from tandem mass spectrometry analyses was accomplished using bioinformatics software and quality control criteria as previously described^57.

YWHAE (Y49) = target: T2, YWHAE (Y49) (Homo sapiens, UniProt P62258); experiment: Competitive chemical proteomics of SuTEx fragments vs HHS-482, YWHAE site; assay type: binding; settings: fragment 50 μM, 30 min, 37° C.
T2 construct: endogenous in cells; host or cells: DM93 melanoma cells, soluble proteome (lysate)
Protocol: as §1
(§2) The chemical proteomic method for functional tyrosine profiling^72 was tailored to investigate AG/LG effects on SuTEx fragment reactivity in complex proteomes. In brief, isotopically light and heavy soluble proteomes from DM93 melanoma cells cultured by stable isotopic labeling by amino acids in cell culture (SILAC^80) media were used for quantitative liquid chromatography-mass spectrometry (LC-MS) studies. […] Proteomes were digested with trypsin protease, HHS-482-modified peptides enriched by avidin chromatography and analyzed by high-resolution LC-MS/MS and bioinformatics as described hereinabove.
(§3) To evaluate substituent effects on proteome activity, reactivity profiles of each respective SuTEx fragment were compared across >1500 total distinct HHS-482-modified tyrosine sites from >650 detected proteins. […]

purified DPP3 = target: T3, purified DPP3 (Homo sapiens, UniProt Q9NY33); experiment: DPP3 biochemical substrate assay (Arg-Arg β-naphthylamide peptidase assay)
T3 sequence (Q9NY33 1-737): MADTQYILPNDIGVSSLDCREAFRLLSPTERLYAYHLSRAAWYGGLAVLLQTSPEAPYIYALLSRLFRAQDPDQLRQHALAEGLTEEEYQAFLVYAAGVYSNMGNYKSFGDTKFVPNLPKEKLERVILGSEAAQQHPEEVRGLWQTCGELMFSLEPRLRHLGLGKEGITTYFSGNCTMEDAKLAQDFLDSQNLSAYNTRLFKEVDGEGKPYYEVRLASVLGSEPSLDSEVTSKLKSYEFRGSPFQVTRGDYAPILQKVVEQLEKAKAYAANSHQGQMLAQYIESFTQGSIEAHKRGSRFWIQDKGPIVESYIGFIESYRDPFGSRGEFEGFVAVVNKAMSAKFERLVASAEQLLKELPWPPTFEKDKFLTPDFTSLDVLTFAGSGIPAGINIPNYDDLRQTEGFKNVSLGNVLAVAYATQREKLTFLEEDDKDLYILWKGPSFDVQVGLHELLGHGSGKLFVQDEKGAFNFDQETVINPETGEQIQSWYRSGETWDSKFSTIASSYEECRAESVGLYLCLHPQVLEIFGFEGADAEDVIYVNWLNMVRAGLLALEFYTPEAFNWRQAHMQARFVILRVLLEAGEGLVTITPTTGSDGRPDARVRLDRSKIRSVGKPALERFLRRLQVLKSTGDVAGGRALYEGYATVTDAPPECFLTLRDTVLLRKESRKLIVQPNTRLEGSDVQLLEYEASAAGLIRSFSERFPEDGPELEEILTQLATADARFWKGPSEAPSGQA
Protocol: DPP3 Biochemical Substrate Assay
Substrate assays were performed using purified DPP3 protein diluted to 5 ng/μL in assay buffer. DPP3 samples (10 μl) were diluted to 85 μl with assay buffer and transferred to a black 96-well plate. Samples were treated with a 50× stock of SuTEx-fragment at indication concentration for 30 min at 37° C. A stock solution of DPP3 substrate (Arg-Arg β-naphthylamide trihydrochloride, 0.5 mM: Sigma-Aldrich. St, Louis, Missouri, United States of America) was diluted to 100 μM in assay buffer. Substrate solution (5 μl) was added to each sample. Samples were mixed briefly by shaking and reaction monitored in kinetic mode by measuring fluorescence at 450 nm for 10 min on a BMG Labtech CLARIOstar plate reader (BMG Labtech, Cary, North Carolina, United States of America).

human DPP3 (hDPP3) = target: T4, human DPP3 (hDPP3) (Homo sapiens, UniProt Q9NY33); experiment: Gel-based competitive chemical proteomic screen with HHS-482, recombinant hDPP3-HEK293T soluble proteomes; assay type: binding; settings: 50 μM fragment, 37° C., 30 min
T4 construct: FLAG (C); host or cells: HEK293T, transient transfection; soluble proteome used unpurified
T4 sequence (Q9NY33 1-737): T3 sequence (Q9NY33 1-737)
Protocol: Gel-Based Chemical Proteomic Assay
Cell pellets were lysed in PBS and fractionated (100,000×g, 45 min, 4° C.) to generate soluble and membrane fractions. Protein concentrations were determined using Bio-Rad DC protein assay (Bio-Rad Laboratories, Inc., Hercules, California, United States of America), and adjusted to 1 mgml^−1 in PBS. Proteome samples (49 μl aliquots) were treated with DMSO vehicle or indicated concentration of SuTEx fragment (1 μL, 50× stock in DMSO) for 30 min at 37° C. Samples were then treated with HHS-482 probe (1 μL, 2.5 mM stock in DMSO) for 30 min at 37° C. Probe labeled samples were conjugated to rhodamine-azide (1 μL, 1.25 mM stock; final concentration of 25 μM) by copper-catalyzed azide-alkyne cycloadditions (CuAAC) for 1 h at room temperature followed by SDS-PAGE and in-gel fluorescence scanning as previously described^57.

DM93 soluble proteomes = experiment: Proteome-wide competitive chemical proteomics of SuTEx fragments vs HHS-482; assay type: binding, human; settings: fragment 50 μM, 30 min, 37° C.
Protocol: as §1
The chemical proteomic method for functional tyrosine profiling^72 was tailored to investigate AG/LG effects on SuTEx fragment reactivity in complex proteomes. In brief, isotopically light and heavy soluble proteomes from DM93 melanoma cells cultured by stable isotopic labeling by amino acids in cell culture (SILAC^80) media were used for quantitative liquid chromatography-mass spectrometry (LC-MS) studies. Light and heavy DM93 proteomes were treated with dimethyl sulfoxide (DMSO) vehicle or SuTEx fragment (50 μM, 30 min, 37° C.), respectively, followed by labeling with the tyrosine-reactive probe HHS-482 described hereinabove (50 μM, 30 min, 37° C.) and copper-catalyzed azide-alkyne cycloaddition (CuAAC) conjugation of a desthiobiotin-azide enrichment tag. Proteomes were digested with trypsin protease, HHS-482-modified peptides enriched by avidin chromatography and analyzed by high-resolution LC-MS/MS and bioinformatics as described hereinabove.
To evaluate substituent effects on proteome activity, reactivity profiles of each respective SuTEx fragment were compared across >1500 total distinct HHS-482-modified tyrosine sites from >650 detected proteins. Fragments were screened across independent biological replicates (n=2-3) and high-quality tyrosine site annotations were identified by detection in at least a single biological replicate from each fragment dataset, probe-specific enrichment (HHS-482 probe/DMSO SILAC ratio (SR)>5), and quality control confidence criteria of ≥300 Byonic score^31, […] protein false discovery rate (FDR), and ≤5 ppm mass accuracy in order to minimize the potential for false positives^72. SILAC ratios (SR) from competitive studies (Light-DMSO/Heavy-fragment) were used to identify fragment-competed tyrosine residues as sites showing >75% reduction in enrichment by HHS-482 compared with DMSO vehicle control (i.e. liganded tyrosines, SR>4). In total, 305 liganded tyrosines on 213 distinct proteins were identified, corresponding to ˜30% and ˜44% of total quantified tyrosines and proteins, respectively. […]

PLD3 (Y437) = target: T5, PLD3 (Y437) (Homo sapiens, UniProt Q8IV08); experiment: Competitive chemical proteomics of SuTEx fragments vs HHS-482, PLD3 site; assay type: binding; settings: fragment 50 μM, 30 min, 37° C.
T5 construct: endogenous in cells; host or cells: DM93 melanoma cells, soluble proteome (lysate)
Protocol: as §1, §2, §3

[1] = HPLC assay for solution reactivity of sulfonyl triazole fragments with p-cresol; assay type: physicochemical; settings: HPLC assay, TMG base
Protocol: HPLC Assay for Profiling Solution Reactivity and Stability of Sulfonyl Triazole Fragments
The following reagents were prepared and stored on ice prior to use. 0.1 M solution of caffeine in acetonitrile, 1.0 M solution of n-butylamine, p-cresol, tetramethylguanidine […], 1 M HOAc in ACN and 10 mM solution of SuTEx fragment in DMF-ACN mixture (10:90, v/v). 500 μL of fragment solution was transferred to a dram vial on ice. To the mixture, 5.5 μL of TMG and 5.5 μL of p-cresol or n-butylamine was added and solutions were stirred on ice for 6 h. To monitor reactivity, 50 μL aliquots were removed at indicated time points and quenched with 10 μL of a 1:1 mixture of caffeine and HOAc. Samples were injected (1 μL) and analyzed by reverse-phase HPLC on a Shimadzu 1100 Series spectrometer (Shimadzu, Kyoto, Japan) with UV detection at 254 nm. Reaction progress was evaluated by monitoring consumption of starting material (SuTEx fragment) normalized to caffeine standard. Chromatographic separation was performed using a Phenomenex Kinetex C18 column (2.6 μm, 50×4.6 mm) (Phenomenex, Torrance, California, United States of America). Mobile phases A and B were composed of H2O+0.1% HOAc and ACN+0.1% HOAc, respectively. Samples were analyzed using the following analytical conditions: using a flow rate of 0.8 ml min^−1, the gradient was as follows: 0-0.5 min, 15% B; 0.5-6.5 min 85% B; 6.5-7 min 100% B: 7-8.5 min 100% B; 8.5-9 min 15% B; 9-9.8 min 15% B.

[2] = target: T6, recombinant GSTP1 lysates (Homo sapiens, UniProt P09211); experiment: GSTP1 biochemical substrate assay (GSH conjugation to BDNB); settings: negative control probes; highest concentration tested 100 μM
T6 construct: FLAG (C); host or cells: HEK293T, transient transfection; soluble proteome used unpurified
Protocol: GSTP1 Biochemical Substrate Assay
Recombinant GSTP1-HEK293T soluble cell proteomes were diluted to 1 mg ml^−1 in assay buffer (100 mM NaH2PO4, pH 7.0). Samples were treated with inhibitor at indicated concentrations for 30 min at 37° C. GSH stock solution (250 mM in water) was diluted to 4 mM in assay buffer and 25 μl of diluted GSH solution was added to each sample. A substrate stock solution of 75 mM 1-bromo-2,4-dinitrobenzene […] in ethanol was diluted to 2 mM in assay buffer. Samples (25 μl) were aliquoted into a 96-well plate and spun briefly via centrifuge. Next, 50 μl of 2 mM BDNB was added to each well and the reaction was monitored in kinetic mode by measuring absorbance at 340 nm for 10 min on a BMG Labtech CLARIOstar plate reader (BMG Labtech, Cary, North Carolina, United States of America).

T6 sequence (P09211 whole entry): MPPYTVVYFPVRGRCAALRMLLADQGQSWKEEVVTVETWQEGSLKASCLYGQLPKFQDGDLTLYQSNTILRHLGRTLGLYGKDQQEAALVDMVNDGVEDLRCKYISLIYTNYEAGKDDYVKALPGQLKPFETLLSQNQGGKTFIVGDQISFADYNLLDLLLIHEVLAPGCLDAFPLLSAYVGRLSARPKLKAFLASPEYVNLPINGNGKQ
T2 sequence (P62258 whole entry, the tested form may be a part): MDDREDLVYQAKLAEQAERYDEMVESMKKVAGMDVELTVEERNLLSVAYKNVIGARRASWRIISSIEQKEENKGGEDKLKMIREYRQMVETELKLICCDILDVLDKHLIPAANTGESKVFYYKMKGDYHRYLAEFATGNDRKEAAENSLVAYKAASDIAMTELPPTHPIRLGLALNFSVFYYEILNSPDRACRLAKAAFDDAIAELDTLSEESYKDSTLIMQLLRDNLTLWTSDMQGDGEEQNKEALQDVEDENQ
T5 sequence (Q8IV08 whole entry, the tested form may be a part): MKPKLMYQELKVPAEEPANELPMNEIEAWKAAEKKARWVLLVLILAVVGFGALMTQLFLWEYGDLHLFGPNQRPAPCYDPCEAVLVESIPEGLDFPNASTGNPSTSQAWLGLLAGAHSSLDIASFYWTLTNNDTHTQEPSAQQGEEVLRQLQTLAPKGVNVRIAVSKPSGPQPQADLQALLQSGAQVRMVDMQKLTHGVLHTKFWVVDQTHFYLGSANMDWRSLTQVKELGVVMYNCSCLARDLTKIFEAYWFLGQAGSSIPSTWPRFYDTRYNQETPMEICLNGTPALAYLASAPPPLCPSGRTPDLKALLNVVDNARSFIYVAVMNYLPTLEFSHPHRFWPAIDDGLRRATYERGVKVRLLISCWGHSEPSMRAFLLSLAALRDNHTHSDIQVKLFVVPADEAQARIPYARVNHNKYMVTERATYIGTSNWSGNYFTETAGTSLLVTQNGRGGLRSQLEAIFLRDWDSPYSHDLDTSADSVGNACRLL

Row | SILAC ratio (SR), DPP3 Y417 (DPP3 Y417) | blockade of HHS-482 labeling of DPP3 Y417 (site liganded) (DPP3 Y417) | SILAC ratio (SR) at tyrosine competed site YWHAE Y49 (YWHAE (Y49)) | fold difference in potency against DPP3, JWB142 vs SuFEx-3 (purified DPP3; JWB142 more potent than SuFEx counterpart) | IC50 (purified DPP3; fragment pretreatment 30 min at 37° C., n=3, read-out: IC50, blockade of DPP3 catalytic (peptidase) activity) | blockade of DPP3 probe (HHS-482) labeling (human DPP3 (hDPP3)) | SMILES | liganded tyrosine frequency (SR>4) (DM93 soluble proteomes) | SILAC ratio (SR) at tyrosine competed site PLD3 Y437 (PLD3 (Y437)) | solution reactivity with p-cresol [1] | inhibitory activity against GSTP1 [2]
1 | 2.4 | ~50% | > 6 | > 10 fold | 17 µM | ~50% | COc1ccc(-c2ncn(S(=O)(=O)c3ccc(-c4ccccc4)cc3)n2)cc1 [JWB142, 1-([1,1′-Biphenyl]-4-ylsulfonyl)-3-(4-methoxyphenyl)-1H-1,2,4-triazole] | < 0.1% |  |  | 
2 |  |  |  |  |  |  | O=S(=O)(C1CC1)n1cnc(-c2ccc(C(F)(F)F)cc2)n1 [JWB146, 1-(Cyclopropylsulfonyl)-3-(4-(trifluoromethyl)phenyl)-1H-1,2,4-triazole] |  | > 6 | largely unreactive | lack of activity; also recorded: did not show inhibitory activity
